The target in the experiment is T1, Histamine N-Methyltransferase (HNMT) (Homo sapiens, UniProt P50135).
T1 construct: Recombinant Human Histamine N-Methyltransferase (rhHNMT, R&D Systems 7637-MT)
The experiment is described as follows: fluorescence assay of histamine methylation by recombinant HNMT (ex […]/em […] nm). In kind it is biochemical.

These results are taken from article PMC9867436, “Drug Repurposing to Inhibit Histamine N-Methyl Transferase” (Molecules, 2023).

Where two headings read alike, the source gives them in different places.

T1 sequence (P50135 whole entry): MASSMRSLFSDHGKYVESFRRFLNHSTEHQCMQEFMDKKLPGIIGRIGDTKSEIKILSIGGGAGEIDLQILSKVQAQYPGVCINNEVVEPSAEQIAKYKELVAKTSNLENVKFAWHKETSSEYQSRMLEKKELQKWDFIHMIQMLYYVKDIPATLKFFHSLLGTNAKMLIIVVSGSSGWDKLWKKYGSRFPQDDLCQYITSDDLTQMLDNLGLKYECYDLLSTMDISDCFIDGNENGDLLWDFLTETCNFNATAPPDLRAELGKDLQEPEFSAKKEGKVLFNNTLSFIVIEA

Consider `CN1C[C@H](C(=O)N[C@]2(C)O[C@@]3(O)[C@@H]4CCCN4C(=O)[C@H](Cc4ccccc4)N3C2=O)C[C@@H]2c3cccc4[nH]cc(c34)C[C@H]21` [dihydroergotamine], for which the IC50 worked out at 72.9 µM. Turning to `Cc1nc(N)nc(N)c1-c1ccc(Cl)c(Cl)c1` [metoprine, reference compound], the IC50 (read-out: IC50) came to 0.0667 µM. For `N#Cc1ccc2[nH]cc(CCCCN3CCN(c4ccc5oc(C(N)=O)cc5c4)CC3)c2c1` [vilazodone], for the setting “read-out: IC50”, the IC50 was 45 µM.
